Earlier results as cited in patent publication US20170173059A1, “Novel Combination of Naturally Occurring Compounds to Assist With Suspected Mycobacterial Infections Related to Autoimmune Conditions” (priority 2015, published 2017).
“Also recorded” adds a separate entry of the source. Read-outs that look alike come from different tables or passages of the source.

Legend:
MAP = conditions: bovine and human MAP strains, radiometric culture
[1] = material data safety sheets / classification
[2] = tested on: Mycobacterium avium subspecies paratuberculosis (MAP); conditions: selected strains of MAP
[3] = tested on: multidrug resistance pumps (MDR pumps)
M. avium = conditions: radiometric culture
M.Tb = conditions: radiometric culture
5-lipoxygenase = target: T1, 5-lipoxygenase (Homo sapiens, UniProt P09917)
T1 sequence (P09917 1-674): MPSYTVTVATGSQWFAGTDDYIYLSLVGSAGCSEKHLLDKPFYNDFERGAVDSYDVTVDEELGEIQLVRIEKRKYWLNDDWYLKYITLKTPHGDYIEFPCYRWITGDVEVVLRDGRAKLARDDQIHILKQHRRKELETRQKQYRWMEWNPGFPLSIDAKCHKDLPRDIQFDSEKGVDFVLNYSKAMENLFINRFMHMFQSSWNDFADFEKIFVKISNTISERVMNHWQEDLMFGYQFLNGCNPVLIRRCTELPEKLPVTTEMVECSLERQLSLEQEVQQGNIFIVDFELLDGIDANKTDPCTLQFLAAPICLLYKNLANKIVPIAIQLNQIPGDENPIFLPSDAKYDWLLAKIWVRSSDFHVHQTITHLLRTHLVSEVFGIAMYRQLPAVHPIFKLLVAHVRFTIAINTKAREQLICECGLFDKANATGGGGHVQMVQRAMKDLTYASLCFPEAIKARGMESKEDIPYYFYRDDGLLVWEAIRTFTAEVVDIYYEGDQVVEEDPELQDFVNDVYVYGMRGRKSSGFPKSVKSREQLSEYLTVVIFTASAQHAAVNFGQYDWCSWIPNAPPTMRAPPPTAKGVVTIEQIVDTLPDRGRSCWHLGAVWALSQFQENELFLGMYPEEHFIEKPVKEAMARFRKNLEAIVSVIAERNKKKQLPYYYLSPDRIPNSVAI

[4] = tested on: patients with inflammatory bowel disease; conditions: Boswellia group versus sulfasalazine control group

Compound: CC1=C(/C=C/C(C)=C/C=C/C(C)=C\C(=O)O)C(C)(C)CCC1 [13 cis-retinoic acid]
- inhibition of MAP strains in vitro (MAP): inhibitory effects

Compound: CC1(C)S[C@@H]2[C@H](NC(=O)[C@H](N)c3ccc(O)cc3)C(=O)N2[C@H]1C(=O)O [Amoxicillin]
- action against the family of mycobacteria (family of mycobacteria): little to no action

Compound: O=CC=Cc1ccccc1 [Cinnamaldehyde]
- safety listing (GRAS) [1]: GRAS
- inhibition of MAP in vitro [2]: shown to inhibit

Compound: COc1cc(C2Oc3cc(-c4cc(=O)c5c(O)cc(O)cc5o4)ccc3OC2CO)cc(OC)c1O (stereo not drawn) [Example 5-MHC, 5-methoxyhydnocarpin]
- multi-drug resistance pump inhibition [3]: multi-drug resistance pump inhibitor

Compound: Cc1ncc([N+](=O)[O-])n1CCO [Metronidazole]
- action against the family of mycobacteria (family of mycobacteria): little to no action

Compound: CC[C@@]1([C@@H]2O[C@@H]([C@H]3O[C@@](O)(CO)[C@H](C)C[C@@H]3C)C[C@@H]2C)CC[C@H]([C@]2(C)CC[C@]3(C[C@H](O)[C@@H](C)[C@@H]([C@@H](C)[C@@H](OC)[C@H](C)C(=O)O)O3)O2)O1 [Monensin]
- inhibition of MAP strains in vitro (MAP): displayed inhibition of MAP

Compound: CC1=C(/C=C/C(C)=C/C=C/C(C)=C/CO)C(C)(C)CCC1 [Retinol, (2E,4E,6E,8E)-3,7-Dimethyl-9-(2,6,6-trimethyl-cyclohex-1-enyl)-nona-2,4,6,8-tetraen-1-ol]
- inhibition of M. avium (M. avium): strong inhibitory effect
- inhibition of M.Tb (M.Tb): strong inhibitory effect
- inhibition of MAP strains in vitro (MAP): strong inhibitory effect

Compound: O=C/C=C/c1ccccc1 [Trans-cinnamaldehyde]
- safety listing (GRAS) [1]: GRAS
- inhibition of MAP in vitro [2]: shown to inhibit

Compound: C=C1CC[C@H](O)C/C1=C/C=C1\CCC[C@]2(C)[C@@H]([C@H](C)CCCC(C)C)CC[C@@H]12 [Vitamin D3, cholecalciferol]
- anti-neoplastic activity in colon tissue (colon tissue): specific anti-neoplastic activity
- anti-neoplastic activity in colon tissue (colon tissue; listed as D3): protect against neoplastic development
- inhibition of MAP strains in vitro (MAP): shown inhibition

Compound: CC(=O)O[C@@H]1CC[C@@]2(C)[C@@H](CC[C@]3(C)[C@@H]2C(=O)C=C2[C@@H]4[C@@H](C)[C@H](C)CC[C@]4(C)CC[C@]23C)[C@@]1(C)C(=O)O [acetyl-11-keto-beta-boswellic acid]
- effect on 5-lipoxygenase (5-lipoxygenase): influenced

Compound: CC(=O)OC/C=C(C)/C=C/C=C(C)/C=C/C1=C(C)CCCC1(C)C [retinyl acetate]
- inhibition of MAP strains in vitro (MAP): inhibitory effects; also recorded: highest inhibition of the group

Compound: O=C(O)c1cc(/N=N/c2ccc(S(=O)(=O)Nc3ccccn3)cc2)ccc1O [sulfasalazine]
- remission rates [4]: 75%

Compound: CC1=C(/C=C/C(C)=C/C=C/C(C)=C/C=C/C=C(C)/C=C/C=C(C)/C=C/C2=C(C)CCCC2(C)C)C(C)(C)CCC1 [β carotene]
- inhibition of MAP strains in vitro (MAP): inhibitory effects

Compound: Vitamin A
- inhibition of MAP strains in vitro (MAP): in vitro inhibition
- inhibition of MAP strains in vitro (MAP; listed as vitamin A): found to inhibit
